{"source": "patent US20080300147A1", "about": "“Detection and Treatment of Fibrotic Disorders” (priority 2004, published 2008)", "key": {"myometrium": {"tested_on": "myometrium", "conditions": "GnRHa treated group compared to secretory phase tissues", "text": "(§1) Western Blot Analysis and Immunohistochemical Localization. For immunoblotting, total protein was isolated from small portions of GnRHa-treated and untreated leiomyoma and myometrium as well as the GnRHa-treated and untreated cells as previously described (Ding, L et al. J Clin Endocrinol Metab, 2004, 89:5549-5557; Chegini, N et al. Mol Cell Endocrinol, 2003, 209:9-16). Following determination of the tissue homogenates and cell lysates protein content an equal amount of sample proteins were subjected to SDS-PAGE and transferred to polyvinyldiene difluoride (PVDF) membrane. The blots were incubated with anti-TIEG antibody, kindly provided by Dr. Thomas Spelsberg, Department of Biochemistry, Mayo Clinic, Rochester, Minn. (Johnsen, S A et al. Oncogene, 2002, 21:5783-90), TGIF, EGR3, p27, p57, Nur77 and Gas1 antibodies purchased from Santa Cruz Biochemical (Santa Cruz, Calif.), IL-11 antibodies purchased from R & D system (Minneapolis, Minn.) for 1 hr at room temperature. […]\n(§2) Western Blot Analysis and Immunohistochemical Localization. […] The homogenates' protein contents were determined, and an equal amount was subjected to SDS-PAGE and transferred to polyvinyldiene difluoride membrane."}, "leiomyoma": {"tested_on": "leiomyoma", "conditions": "GnRHa treated group compared to secretory phase tissues", "text": "as §1, §2"}}, "data": [{"smiles": "CCNC(=O)[C@@H]1CCCN1C(=O)[C@H](CCCNC(=N)N)NC(=O)[C@H](CC(C)C)NC(=O)[C@@H](CC(C)C)NC(=O)[C@H](Cc1ccc(O)cc1)NC(=O)[C@H](CO)NC(=O)[C@H](Cc1c[nH]c2ccccc12)NC(=O)[C@H](Cc1c[nH]cn1)NC(=O)[C@@H]1CCC(=O)N1", "note": "[GnRHa, leuprolide acetate]", "values": [{"measurement": "FMOD immunoreactive intensity in myometrium", "setting": "myometrium", "result": "reduction"}, {"measurement": "FMOD immunoreactive intensity in leiomyoma", "setting": "leiomyoma", "result": "reduction"}]}]}
